The text below walks through data of ChEMBL document CHEMBL1141157, “A combination of docking, QM/MM methods, and MD simulation for binding affinity estimation of metalloprotein ligands” (J Med Chem, 2005).

Each structure is given as a SMILES string.

In the first assay the target is T1, Matrix metalloproteinase-9 (Homo sapiens, UniProt P14780). As to the kind of experiment: Inhibition of MOCAc-Pro-Leu-Gly-Leu-A2p (Dnp)-Ala-Arg-NH2 binding to human matrix metalloprotease-9 (MMP-9). To be noted: read-out: Log 1/Ki (converted).
T1 sequence (P14780 whole entry): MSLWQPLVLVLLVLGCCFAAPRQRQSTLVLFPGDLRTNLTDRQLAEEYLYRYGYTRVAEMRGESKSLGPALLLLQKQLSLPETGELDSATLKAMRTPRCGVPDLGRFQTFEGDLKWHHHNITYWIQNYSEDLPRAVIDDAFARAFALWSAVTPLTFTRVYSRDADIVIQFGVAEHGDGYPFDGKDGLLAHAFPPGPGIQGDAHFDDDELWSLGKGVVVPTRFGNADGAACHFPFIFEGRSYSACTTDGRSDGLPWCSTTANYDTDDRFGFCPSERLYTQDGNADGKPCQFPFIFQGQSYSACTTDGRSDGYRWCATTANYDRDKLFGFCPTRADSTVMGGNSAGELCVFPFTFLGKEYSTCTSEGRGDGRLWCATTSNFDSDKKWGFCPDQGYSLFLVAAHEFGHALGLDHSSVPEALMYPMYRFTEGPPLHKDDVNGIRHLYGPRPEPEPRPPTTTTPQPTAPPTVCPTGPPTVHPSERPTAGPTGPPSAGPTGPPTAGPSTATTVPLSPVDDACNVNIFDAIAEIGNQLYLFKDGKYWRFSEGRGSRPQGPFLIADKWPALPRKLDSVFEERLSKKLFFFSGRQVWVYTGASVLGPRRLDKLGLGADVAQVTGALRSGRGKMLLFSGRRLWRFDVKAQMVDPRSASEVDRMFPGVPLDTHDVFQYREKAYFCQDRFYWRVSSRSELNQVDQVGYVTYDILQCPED
For `CCN(CC)CCOP(=O)(c1ccc(OC)cc1)N1Cc2ccccc2C[C@@H]1C(=O)NO` (stereo partly drawn), the Ki was 16.7 nM. `CCOCCOc1ccc(P(=O)(OCC)N2Cc3ccccc3C[C@@H]2C(=O)NO)cc1` (stereo partly drawn): the Ki is 14.2 nM. Still for that read-out and setting: to `CCOP(=O)(c1ccc(Oc2ccncc2)cc1)N1Cc2ccccc2C[C@@H]1C(=O)NO` (stereo partly drawn) belongs 0.6 nM. Same read-out and setting: the value for `CCOP(=O)(c1ccc(F)cc1)N1Cc2ccccc2C[C@@H]1C(=O)NO` (stereo partly drawn) was 51.9 nM.

In the case of `CCOP(=O)(c1cccc(F)c1)N1Cc2ccccc2C[C@@H]1C(=O)NO` (stereo partly drawn), the Ki is 80.2 nM. As for `CCOP(=O)(c1ccc(OC)cc1)N1Cc2ccccc2C[C@H]1C(=O)NO` (stereo partly drawn), the Ki was 349 nM. With `CCOP(=O)(c1ccc(OC)cc1)N1CC2Nc3ccccc3C2C[C@@H]1C(=O)NO` (stereo partly drawn), the Ki was 1.13 nM. The same measure, in the same setting: to `CCOP(=O)(c1ccc(-c2ccccc2)cc1)N1Cc2ccccc2C[C@@H]1C(=O)NO` (stereo partly drawn) belongs 0.31 nM; to `CCOP(=O)(c1ccncc1)N1Cc2ccccc2C[C@@H]1C(=O)NO` (stereo partly drawn), 278 nM. For `COc1ccc(P(=O)(OCC2CCCCC2)N2Cc3ccccc3C[C@@H]2C(=O)NO)cc1` (stereo partly drawn), the Ki is 4.56 nM. The same measure, in the same setting: the value for `CCOP(=O)(c1cccs1)N1Cc2ccccc2C[C@@H]1C(=O)NO` (stereo partly drawn) was 59.2 nM. Still for that read-out and setting: the value for `CCOP(=O)(c1ccc(N)cc1)N1Cc2ccccc2C[C@@H]1C(=O)NO` (stereo partly drawn) was 95.5 nM; that for `CCOP(=O)(CCc1ccccc1)N1Cc2ccccc2C[C@@H]1C(=O)NO` (stereo partly drawn) was 38.3 nM. Still for that read-out and setting: the value for `CCOP(=O)(c1ccc(OC)cc1)N1Cc2cc(N)ccc2C[C@@H]1C(=O)NO` (stereo partly drawn) was 11 nM.

In the case of `COc1ccc(P(=O)(OCCc2ccc(-c3ccccc3)cc2)N2Cc3ccccc3C[C@@H]2C(=O)NO)cc1` (stereo partly drawn), the Ki is 6.47 nM. Still for that read-out and setting: to `COc1ccc(P(=O)(OC2CCCCC2)N2Cc3ccccc3C[C@@H]2C(=O)NO)cc1` (stereo partly drawn) belongs 6.58 nM; to `CCOP(=O)(c1ccccc1)N1Cc2ccccc2C[C@@H]1C(=O)NO` (stereo partly drawn), 42.7 nM; to `CCOP(=O)(c1ccc(Oc2ccccc2)cc1)N1Cc2ccccc2C[C@@H]1C(=O)NO` (stereo partly drawn), 0.0794 nM. Same read-out and setting: the value for `COc1ccc(P(=O)(OCCc2ccccn2)N2Cc3ccccc3C[C@@H]2C(=O)NO)cc1` (stereo partly drawn) was 3.42 nM; that for `CCOP(=O)(c1ccc(OC)cc1)N1Cc2ccccc2C[C@@H]1C(=O)NO` (stereo partly drawn) was 5.05 nM. Same read-out and setting: to `CCOP(=O)(c1ccc(C)cc1)N1Cc2ccccc2C[C@@H]1C(=O)NO` (stereo partly drawn) belongs 41.8 nM; to `CCOP(=O)(c1ccc(OC)cc1)N1CCN(C(=O)OCc2ccccc2)C[C@@H]1C(=O)NO` (stereo partly drawn), 5.2 nM; to `CCOP(=O)(c1ccccc1F)N1Cc2ccccc2C[C@@H]1C(=O)NO` (stereo partly drawn), 32.1 nM.

Regarding `CCOP(=O)(c1ccc(Oc2ccc(N)cc2)cc1)N1Cc2ccccc2C[C@@H]1C(=O)NO` (stereo partly drawn), the Ki is 0.1 nM.

Consider `COc1ccc(P(=O)(OC)N2Cc3ccccc3C[C@@H]2C(=O)NO)cc1` (stereo partly drawn), for which the Ki is 2.03 nM.

Consider `CCOP(=O)(c1ccc(OC)cc1)N1Cc2ccsc2C[C@@H]1C(=O)NO` (stereo partly drawn), for which the Ki is 3.8 nM.

Regarding `CCOP(=O)(c1ccc(OC)cc1)N1CCC[C@@H]1C(=O)NO` (stereo partly drawn), the Ki was 316 nM. The same measure, in the same setting: the value for `CCOCCOP(=O)(c1ccc(OC)cc1)N1Cc2ccccc2C[C@@H]1C(=O)NO` (stereo partly drawn) was 6.35 nM.

The target of a further assay is T1, Matrix metalloproteinase-9. The experiment in a line: Inhibition constant for human matrix metalloprotease-9 (MMP-9).
Settings: not given
In turn, `CCOP(=O)(c1ccc(F)cc1)N1Cc2ccccc2C[C@@H]1C(=O)NO` (stereo partly drawn) displayed a Ki of 51.9 nM. The same measure, in the same setting: the value for `CCOP(=O)(c1ccc(OC)cc1)N1Cc2ccccc2C[C@H]1C(=O)NO` (stereo partly drawn) was 349 nM; that for `CCOP(=O)(c1ccccc1)N1Cc2ccccc2C[C@@H]1C(=O)NO` (stereo partly drawn) was 42.7 nM.

With `CCOP(=O)(c1ccc(OC)cc1)N1Cc2ccccc2C[C@@H]1C(=O)NO` (stereo partly drawn), the Ki is 5.05 nM. Still for that read-out and setting: the value for `CCOP(=O)(c1ccc(C)cc1)N1Cc2ccccc2C[C@@H]1C(=O)NO` (stereo partly drawn) was 41.8 nM.
